Test system: 817829-284-R-J1-PDC complex spheroids, viability
Experiment: Anticancer human tumor 817829-284-R-J1-PDC patient-derived colon adenocarcinoma cell line growth inhibition [CLK]
Settings: for IC50: curve of first compound; for viability, T/C: stronger effect = lower value
In short: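 Patient-derived tumor cells grown as complex spheroids with HUVEC endothelial cells and mesenchymal stem cells, treated with drug combinations. Concentrations descend in half-log steps from near clinical Cmax, or from 10 microM if Cmax unknown.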

[1] = second compound 0.0316 µM, first compound 0.0316 µM
[2] = second compound 0.0316 µM, first compound 0.1 µM
[3] = second compound 0.1 µM, first compound 0.0316 µM
[4] = second compound 0.1 µM, first compound 0.1 µM
[5] = second compound 0.316 µM, first compound 0.0316 µM
[6] = second compound 0.316 µM, first compound 0.1 µM
[7] = second compound 1 µM, first compound 0.0316 µM
[8] = second compound 1 µM, first compound 0.1 µM
[9] = second compound 3.16 µM, first compound 0.0316 µM
[10] = second compound 3.16 µM, first compound 0.1 µM
[11] = second compound 10 µM, first compound 0.0316 µM
[12] = second compound 10 µM, first compound 0.1 µM
[13] = second compound 0.0316 µM, first compound 0.316 µM
[14] = second compound 0.0316 µM, first compound 1 µM
[15] = second compound 0.0316 µM, first compound 3.16 µM
[16] = second compound 0.0316 µM, first compound 10 µM
[17] = second compound 0.1 µM, first compound 0.316 µM
[18] = second compound 0.1 µM, first compound 1 µM
[19] = second compound 0.1 µM, first compound 3.16 µM
[20] = second compound 0.1 µM, first compound 10 µM
[21] = second compound 0.316 µM, first compound 0.316 µM
[22] = second compound 0.316 µM, first compound 1 µM
[23] = second compound 0.316 µM, first compound 3.16 µM
[24] = second compound 0.316 µM, first compound 10 µM
[25] = second compound 1 µM, first compound 0.316 µM
[26] = second compound 1 µM, first compound 1 µM
[27] = second compound 1 µM, first compound 3.16 µM
[28] = second compound 1 µM, first compound 10 µM
[29] = second compound 3.16 µM, first compound 0.316 µM
[30] = second compound 3.16 µM, first compound 1 µM
[31] = second compound 3.16 µM, first compound 3.16 µM
[32] = second compound 3.16 µM, first compound 10 µM
[33] = second compound 10 µM, first compound 0.316 µM
[34] = second compound 10 µM, first compound 1 µM
[35] = second compound 10 µM, first compound 3.16 µM
[36] = second compound 10 µM, first compound 10 µM
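Also: spheroids exposed to the agents for seven days before readout.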

Cn1ncnc1[C@H]1c2n[nH]c(=O)c3cc(F)cc(c23)N[C@@H]1c1ccc(F)cc1 + CNC(=O)c1ccc(Nc2nc(OC3CCCC3)c3c(-c4ccc5nc(C)oc5c4)c[nH]c3n2)c(OC)c1
IC50 (second compound 0.0316 µM): < 0.316 nM | IC50 (second compound 0.1 µM): < 0.316 nM | IC50 (second compound 0.316 µM): < 0.316 nM | IC50 (second compound 1 µM): < 0.316 nM | IC50 (second compound 3.16 µM): < 0.316 nM | IC50 (second compound 10 µM): < 0.316 nM | viability, T/C (second compound 0.0316 µM, first compound 0.000316 µM): 26.6% | viability, T/C (second compound 0.0316 µM, first compound 0.001 µM): 36.8% | viability, T/C (second compound 0.0316 µM, first compound 0.00316 µM): 27.3% | viability, T/C (second compound 0.0316 µM, first compound 0.01 µM): 31.1% | viability, T/C [1]: 25.3% | viability, T/C [2]: 23.4% | viability, T/C (second compound 0.1 µM, first compound 0.000316 µM): 20.5% | viability, T/C (second compound 0.1 µM, first compound 0.001 µM): 21.1% | viability, T/C (second compound 0.1 µM, first compound 0.00316 µM): 24.7% | viability, T/C (second compound 0.1 µM, first compound 0.01 µM): 23.5% | viability, T/C [3]: 22.3% | viability, T/C [4]: 18.2% | viability, T/C (second compound 0.316 µM, first compound 0.000316 µM): 24.1% | viability, T/C (second compound 0.316 µM, first compound 0.001 µM): 17.5% | viability, T/C (second compound 0.316 µM, first compound 0.00316 µM): 20.2% | viability, T/C (second compound 0.316 µM, first compound 0.01 µM): 21.6% | viability, T/C [5]: 18.6% | viability, T/C [6]: 15.3% | viability, T/C (second compound 1 µM, first compound 0.000316 µM): 18.1% | viability, T/C (second compound 1 µM, first compound 0.001 µM): 20.1% | viability, T/C (second compound 1 µM, first compound 0.00316 µM): 14.9% | viability, T/C (second compound 1 µM, first compound 0.01 µM): 17.3% | viability, T/C [7]: 22% | viability, T/C [8]: 12.1% | viability, T/C (second compound 3.16 µM, first compound 0.000316 µM): 24.5% | viability, T/C (second compound 3.16 µM, first compound 0.001 µM): 19.9% | viability, T/C (second compound 3.16 µM, first compound 0.00316 µM): 27.6% | viability, T/C (second compound 3.16 µM, first compound 0.01 µM): 14.3% | viability, T/C [9]: 16.7% | viability, T/C [10]: 15.8% | viability, T/C (second compound 10 µM, first compound 0.000316 µM): 16.8% | viability, T/C (second compound 10 µM, first compound 0.001 µM): 13.4% | viability, T/C (second compound 10 µM, first compound 0.00316 µM): 21.9% | viability, T/C (second compound 10 µM, first compound 0.01 µM): 18.4% | viability, T/C [11]: 16% | viability, T/C [12]: 18.1%

Nc1ccn(C2OC(CO)C(O)C2(F)F)c(=O)n1 (stereo unspecified) + CNC(=O)c1ccc(Nc2nc(OC3CCCC3)c3c(-c4ccc5nc(C)oc5c4)c[nH]c3n2)c(OC)c1
IC50 (second compound 0.0316 µM): < 31.6 nM | IC50 (second compound 0.1 µM): < 31.6 nM | IC50 (second compound 0.316 µM): < 31.6 nM | IC50 (second compound 1 µM): < 31.6 nM | IC50 (second compound 3.16 µM): < 31.6 nM | IC50 (second compound 10 µM): < 31.6 nM | viability, T/C [1]: 7.4% | viability, T/C [2]: 6.76% | viability, T/C [13]: 7.11% | viability, T/C [14]: 7.29% | viability, T/C [15]: 5.09% | viability, T/C [16]: 3.92% | viability, T/C [3]: 8.05% | viability, T/C [4]: 6.31% | viability, T/C [17]: 5.97% | viability, T/C [18]: 5.9% | viability, T/C [19]: 5.26% | viability, T/C [20]: 3.21% | viability, T/C [5]: 8.92% | viability, T/C [6]: 6.1% | viability, T/C [21]: 7.05% | viability, T/C [22]: 4.87% | viability, T/C [23]: 4.82% | viability, T/C [24]: 2.7% | viability, T/C [7]: 6.66% | viability, T/C [8]: 4.92% | viability, T/C [25]: 5.51% | viability, T/C [26]: 5.11% | viability, T/C [27]: 3.64% | viability, T/C [28]: 2.55% | viability, T/C [9]: 6.07% | viability, T/C [10]: 5.26% | viability, T/C [29]: 4.97% | viability, T/C [30]: 4.56% | viability, T/C [31]: 3.52% | viability, T/C [32]: 3.21% | viability, T/C [11]: 7.94% | viability, T/C [12]: 5.03% | viability, T/C [33]: 4.94% | viability, T/C [34]: 4.81% | viability, T/C [35]: 4.26% | viability, T/C [36]: 2.75%

O=c1[nH]cc(F)c(=O)[nH]1 + CNC(=O)c1ccc(Nc2nc(OC3CCCC3)c3c(-c4ccc5nc(C)oc5c4)c[nH]c3n2)c(OC)c1
IC50 (second compound 0.0316 µM): < 31.6 nM | IC50 (second compound 0.1 µM): < 31.6 nM | IC50 (second compound 0.316 µM): < 31.6 nM | IC50 (second compound 1 µM): < 31.6 nM | IC50 (second compound 3.16 µM): < 31.6 nM | IC50 (second compound 10 µM): < 31.6 nM | viability, T/C [1]: 37.3% | viability, T/C [2]: 39.1% | viability, T/C [13]: 24.6% | viability, T/C [14]: 38.4% | viability, T/C [15]: 29.1% | viability, T/C [16]: 22.6% | viability, T/C [3]: 19.2% | viability, T/C [4]: 24% | viability, T/C [17]: 22.7% | viability, T/C [18]: 22.6% | viability, T/C [19]: 18.5% | viability, T/C [20]: 17.6% | viability, T/C [5]: 17.6% | viability, T/C [6]: 26.6% | viability, T/C [21]: 17.4% | viability, T/C [22]: 23.1% | viability, T/C [23]: 15% | viability, T/C [24]: 12.6% | viability, T/C [7]: 17.2% | viability, T/C [8]: 16.8% | viability, T/C [25]: 16.9% | viability, T/C [26]: 11.3% | viability, T/C [27]: 13.3% | viability, T/C [28]: 7% | viability, T/C [9]: 18.9% | viability, T/C [10]: 20.1% | viability, T/C [29]: 13.6% | viability, T/C [30]: 14.7% | viability, T/C [31]: 10.8% | viability, T/C [32]: 7.07% | viability, T/C [11]: 20.7% | viability, T/C [12]: 22.1% | viability, T/C [33]: 17.8% | viability, T/C [34]: 11.7% | viability, T/C [35]: 7.79% | viability, T/C [36]: 7.22%

Source: PubChem BioAssay AID2060599 (Molecular Pharmacology Branch, DTP, NCI, 2025)
